From patent US4992257A, “Dihydroporphyrins and method of treating tumors” (Efamol Holdings PLC, priority 1988, dated 1991) come the findings set out here.

SMILES strings stand for the structures.

The subject of data set [1] is PC6 plasma cell tumour. Nature of the data set: Tumour photo-necrosis: depth of tumour necrosis after sensitiser injection and 10 J cm^-2 light. The data set is classed as in vivo, female BALB/c mice. The note with it: mean ± SE. As for the experimental part: (§1) the method of testing is that the PC6 plasma cell tumour, obtained initially from the Chester Beatty Research Institute, was grown by inoculating 0.3-0.6×10^6 cells subcutaneously in female BALB/c mice. It was used about two weeks later, when it was […] in its longest diameter and […] deep. Sensitisers were injected in dimethyl sulphoxide intra-peritoneally (2.5 ul g^-1) and, twenty four hours later, skin over the tumours was depilated, the mice anaesthetised and tumours exposed to 10 J cm^-2 light. Wavelengths for illumination were the longest wavelength absorption peaks in the red in solutions of sensitiser in fetal calf serum, and were 652-653 nm for the compounds of Examples 1 to 3 and 741 nm for the compound of Example 4. The light source was a copper vapour laser with an output of 10 to 12 watts (Cu 10 laser, Oxford Lasers Ltd) pumping a D2 10K dye laser (Oxford Lasers Ltd). The dye was rhodamine 640 (Applied Photophysics Ltd) for illumination at 652-653 nm and LDS-722 for illumination at 741 nm. Light intensity at the tumour surface was kept below 0.3 W cm^-2, where thermal effects were undetectable.
Twenty four hours after illumination […], 0.2 ml 1% Evans blue (Sigma) in saline was given intravenously and tumours were removed one hour later and fixed in formolsaline. The fixed tumours were sliced at right angles to the surface and the depth of necrosis measured with a dissecting microscope fitted with an eye piece graticule.

Data set [2] deals with Tumour. Nature of the data set: Degree of tumour necrosis obtained at an equivalent muscle damage level. The class given is in vivo. The settings on record: for tumour necrosis for specified levels of muscle damage, in words: versus corresponding compounds of EP-A-0,186,962. From the text:
(§2) In preliminary tests the new compounds have shown similar results as regards skin sensitivity to those given in EP-A-0,186,962. Moreover, the para and meta dihydroxy compounds have been shown specifically, improved properties in other respects which may be expected in all the compounds.

The nature of data set [3]: Muscle oedema (muscle damage) for specified depths of tumour necrosis. The class given is in vivo. The note with it: for muscle damage for specified levels of tumour necrosis, in words: versus corresponding compounds of EP-A-0,186,962.
From the text: as §2

Data set [4] can be described thus: Longest wavelength absorption peak in the red in fetal calf serum. The class given is physicochemical. The note with it: in solutions of sensitiser in fetal calf serum. Here is the method:
as §1

Where [5] appears, read: at muscle oedema 10% increase in muscle weight.
[6] abbreviates: at muscle oedema 20% increase in muscle weight.
Where [7] appears, read: at depth of tumour necrosis 3.0 mm.
Where [8] appears, read: at depth of tumour necrosis 3.5 mm.
The mark [9] stands for this setting: at depth of tumour necrosis 4.0 mm.
[10] abbreviates: at depth of tumour necrosis 5.0 mm.
Where [11] appears, read: at depth of tumour necrosis 5.5 mm.

As for `Oc1ccc(-c2c3nc(c(-c4ccc(O)cc4)c4ccc([nH]4)c(-c4ccc(O)cc4)c4nc(c(-c5ccc(O)cc5)c5ccc2[nH]5)CC4)C=C3)cc1` [Example 1, 2,3-dihydro-5,10,15,20-tetra(p-hydroxyphenyl) porphyrin], the “Depth of Tumour Necrosis” value in data set [1] (dose 3.125 μM/Kg i.p., 653 nm) is 2.13 ± 0.50 mm; in data set [1] (dose 6.25 μM/Kg i.p., 653 nm), 3.50 ± 0.54 mm. Further, the “Tumour Necrosis” value is 3.5 mm in data set [2] (setting [5]) and ~4.0 mm in data set [2] (setting [6]). The “tumour necrosis for specified levels of muscle damage, in words” value in data set [2] is “more tumour necrosis than the corresponding compounds of EP-A-0,186,962”. For the same molecule, the “Muscle Oedema (% Increase in Weight)” value in data set [3] (setting [7]) is given as 8%; in data set [3] (setting [8]) it was 10%. Moreover, the “muscle damage for specified levels of tumour necrosis, in words” value in data set [3] is “considerably less muscle damage than the corresponding compounds of EP-A-0,186,962”.

With `Oc1cccc(-c2c3nc(c(-c4cccc(O)c4)c4ccc([nH]4)c(-c4cccc(O)c4)c4nc(c(-c5cccc(O)c5)c5[nH]c2CC5)C=C4)C=C3)c1` [Example 2, 2,3-dihydro-5,10,15,20-tetra(m-hydroxyphenyl) porphyrin], the “Depth of Tumour Necrosis” value is 3.79 ± 0.28 mm in data set [1] (dose 0.375 μM/Kg i.p., 652 nm) and 5.41 ± 0.39 mm in data set [1] (dose 0.75 μM/Kg i.p., 652 nm). For the same molecule, the “Tumour Necrosis” value in data set [2] (setting [5]) is 5.5-6 mm; in data set [2] (setting [6]), 6.5 mm. In data set [2], the “tumour necrosis for specified levels of muscle damage, in words” value is “more tumour necrosis than the corresponding compounds of EP-A-0,186,962”. Besides, the “Muscle Oedema (% Increase in Weight)” value in data set [3] (setting [8]) came to 2%; in data set [3] (setting [9]), 3%; in data set [3] (setting [10]), 5%; in data set [3] (setting [11]), 7%. Besides, the “muscle damage for specified levels of tumour necrosis, in words” value in data set [3] was “considerably less muscle damage than the corresponding compounds of EP-A-0,186,962”.

For the molecule `Oc1ccccc1-c1c2nc(c(-c3ccccc3O)c3ccc([nH]3)c(-c3ccccc3O)c3nc(c(-c4ccccc4O)c4[nH]c1CC4)C=C3)C=C2` [Example 3, 2,3-dihydro-5,10,15,20-tetra (o-hydroxyphenyl) porphyrin], the “Depth of Tumour Necrosis” value in data set [1] (dose 3.125 μM/Kg i.p., 652 nm) was found to be 3.69 ± 0.74 mm; in data set [1] (dose 6.25 μM/Kg i.p., 652 nm), 4.16 ± 0.27 mm.

As to `Oc1cccc(-c2c3nc(c(-c4cccc(O)c4)c4ccc([nH]4)c(-c4cccc(O)c4)c4nc(c(-c5cccc(O)c5)c5ccc2[nH]5)CC4)CC3)c1` [Example 4, 7,8,17,18-tetrahydro-5,10,15,20-tetra(m-hydroxyphenyl) porphyrin], the “longest wavelength absorption peak in the red” value in data set [4] was 741 nm. Also, the “Depth of Tumour Necrosis” value in data set [1] (dose 0.39 μM/Kg i.p., 741 nm) was 5.22 ± 1.21 mm.

Take `Oc1cccc(-c2c3nc(c(-c4cccc(O)c4)c4ccc([nH]4)c(-c4cccc(O)c4)c4nc(c(-c5cccc(O)c5)c5ccc2[nH]5)C=C4)C=C3)c1` [Meta (Compounds of EP-A-0186962), 5,10,15,20-tetra(m-hydroxyphenyl) porphyrin, reference compound]: the “Tumour Necrosis” value turned out to be 3.5 mm in data set [2] (setting [5]) and 4.0 mm in data set [2] (setting [6]). Besides, the “Muscle Oedema (% Increase in Weight)” value came out at 10% in data set [3] (setting [8]), 20% in data set [3] (setting [9]), 36% in data set [3] (setting [10]) and 49% in data set [3] (setting [11]).

Regarding `Oc1ccc(-c2c3nc(c(-c4ccc(O)cc4)c4ccc([nH]4)c(-c4ccc(O)cc4)c4nc(c(-c5ccc(O)cc5)c5ccc2[nH]5)C=C4)C=C3)cc1` [Para (Compounds of EP-A-0186962), 5,10,15,20-Tetra(p-hydroxyphenyl)porphyrin, reference compound], the entries for the “Tumour Necrosis” value in data set [2] (setting [5]) and in data set [2] (setting [6]) were 2.25 mm and 3.0 mm, respectively. For the same molecule, the “Muscle Oedema (% Increase in Weight)” value in data set [3] (setting [7]) came to 20%; in data set [3] (setting [8]) it was 22%.
